{"source": "patent US6680308B1", "about": "“Use of organophosphorus compounds for the therapeutic and prophylactic treatment of infections” (priority 1998, dated 2004)", "key": {"Plasmodium vinckeii [1]": {"test_system": "Plasmodium vinckeii", "assay": "Efficacy against malaria in vivo, modified Peters' test, treatment of infected mice", "experimental": "The various derivatives were tested by the modified Peters' test. The substances were applied here in a quarter of the median lethal dose (LD50). In the test batch ten mice were infected with Plasmodium vinckeii, the pathogen of mouse malaria. After confirmation of the infection by blood testing four mice were treated. Six mice, which were not treated, served as a control group. […] The control mice had to be killed on day 5 after infection with parasitaemia of >80%."}, "[2]": {"test_system": "Plasmodium falciparum Dd2 (Indo-China)", "assay": "In vitro cytotoxicity against malaria parasites, [3H]-hypoxanthine insertion, strain Dd2", "format": "cell-based", "settings": "strain Dd2, resistant to cloroquine, quinine, pyrimethamine, cycloguanil and sulfadoxine, 48 hours incubation, then 24 hours [3H]-hypoxanthine, read-out: IC50 value (concentration at which the vitality of parasites is reduced by a half)", "experimental": "(§1) On the Principle of IC50 Determination According to Vial et al (the Concentration at Which the Vitality of Parasites is Reduced by a Half)\n(§2) To determine the IC50 value according to Vial et al malaria parasites are initially cultivated for a complete 48 hour cycle in the presence of inhibitors, in the subsequent 24 hours the survival rate is measured by [^3H]-hypoxanthine insertion.\n(§3) A dilution series of 3-(N-formyl-N-hydroxylamino)-propylphosphonic acid monosodium salt is placed in 20 μl aliquots concentrated by 10 on a microtitre plate. Then 180 μl parasite suspension in culture medium is added to each well. Asynchronous cultures with a parasitaemia of approximately 0.4% and 2% haematocrite are used. The microtitre plates are subsequently incubated for 48 hours. Then 30 μl [^3H]-hypoxanthine are added to each well. After 24 hours of incubation the cells were harvested and the incorporated radioactivity was measured. In FIG. 1 the results with the strains HB3 and Dd2 are shown with known resistances against other malaria pharmaceutical compositions. In both strains there is a IC50 value of approximately 100 μg/l. The resistances of these strains are:\nPlasmodium falciparum Dd2 (Indo-China) is resistant to cloroquine, quinine, pyrimethamine, cycloguanil and sulfadoxine."}, "Plasmodium vinckeii [3]": {"test_system": "Plasmodium vinckeii", "assay": "Protection from malaria in infected mice, pretreatment one day before infection", "format": "in vivo, mice (BALB/c-strain)", "experimental": "The efficacy of compounds in vivo against malaria was tested using male mice weighing 20 to 25 g (BALB/c-strain). Four mice were treated intraperitoneally with 50 mg/kg 3-(N-formyl-N-hydroxylamino)-propylphosphonic acid monosodium salt one day before infection. The mice were then infected with Plasmodium vinckeii. Mice which were not pretreated with the substance served as a control group."}, "[4]": {"test_system": "Plasmodium falciparum HB3 (Honduras)", "assay": "In vitro cytotoxicity against malaria parasites, [3H]-hypoxanthine insertion, strain HB3", "format": "cell-based", "settings": "strain HB3, resistant to pyrimethamine, 48 hours incubation, then 24 hours [3H]-hypoxanthine, read-out: IC50 value (concentration at which the vitality of parasites is reduced by a half)", "experimental": "as §1, §2, §3\nPlasmodium falciparum HB3 (Honduras) is resistant to pyrimethamine."}}, "data": [{"smiles": "O=CN(O)CCCP(=O)([O-])O.[Na+]", "note": "[3-(N-formyl-N-hydroxylamino)-propylphosphonic acid monosodium salt]", "values": [{"measurement": "living parasites after 1 day", "setting": "Plasmodium vinckeii [1]; 50 mg/kg/d, mice with a parasitaemia of 80%, after 1 day", "value": "free of living parasites"}, {"measurement": "parasites 8 weeks after the treatment had stopped", "setting": "Plasmodium vinckeii [1]; 1,000 mg/kg/d over 3 days, 8 weeks after end of treatment", "value": "still free from parasites"}, {"measurement": "effect on parasites in the mice's blood", "setting": "Plasmodium vinckeii [1]; 1,000 mg/kg/d over 3 days, mice infected with Plasmodium vinckeii", "value": "destruction of the parasites"}, {"measurement": "living parasites in treated group after one day", "setting": "Plasmodium vinckeii [1]; 1,000 mg/kg/d, after just one day", "value": "free of living parasites"}, {"measurement": "IC50", "setting": "[2]", "value": "~0.1", "unit": "µg/mL"}, {"measurement": "infection in pretreated mice", "setting": "Plasmodium vinckeii [3]; 50 mg/kg intraperitoneally one day before infection with Plasmodium vinckeii", "value": "No infection could be detected"}, {"measurement": "parasites 8 weeks after infection", "setting": "Plasmodium vinckeii [3]; 50 mg/kg intraperitoneally one day before infection, 8 weeks after infection", "value": "still free of parasites"}, {"measurement": "IC50", "setting": "[4]", "value": "~0.1", "unit": "µg/mL"}]}]}
